# Measurements from patent publication US11292791B2 (priority 2017, dated 2022).
# Target: BRD4 (Homo sapiens (Human), UniProt O60885)
# Conditions: read-out: BRD4 IC50 (μM gmean)
row,SMILES,IC50 [µM]
1,COC(=O)N1c2ccc3c(nc(CCn4cccn4)n3CCNCc3cccnc3)c2CC[C@@H]1C [Example 294],1 to 1000
2,COC(=O)N1c2ccc3c(nc(CCn4cccn4)n3CCN(C)CCO)c2CC[C@@H]1C [Example 296],1 to 1000
3,COC(=O)N1c2ccc3c(nc(CCn4cccn4)n3CCN(C)CC(=O)N(C)C)c2CC[C@@H]1C [Example 297],1 to 1000
4,COC(=O)N1c2ccc3c(nc(CCn4cccn4)n3CCN3CCC(O)CC3)c2CC[C@@H]1C [Example 298],1 to 1000
5,COC(=O)N1c2ccc3c(nc(CCn4cccn4)n3CCN3CCC(CO)CC3)c2CC[C@@H]1C [Example 299],1 to 1000
6,COC(=O)N1c2ccc3c(nc(CCn4cccn4)n3CCNCC(=O)N3CCCC3)c2CC[C@@H]1C [Example 300],1 to 1000
7,COC(=O)N1c2ccc3c(nc(CCn4cccn4)n3CCN(C)C3CCOCC3)c2CC[C@@H]1C [Example 301],1 to 1000
8,COC(=O)N1c2ccc3c(nc(CCn4cccn4)n3CCN(C)[C@H]3CCOC3)c2CC[C@@H]1C [Example 302],1 to 1000
9,COC(=O)N1c2ccc3c(nc(CCn4cccn4)n3CCN3CC[C@H](C(N)=O)C3)c2CC[C@@H]1C [Example 303],1 to 1000
10,COC(=O)N1c2ccc3c(nc(CCn4cccn4)n3CCN(C)CC(C)(C)O)c2CC[C@@H]1C [Example 304],1 to 1000
11,COC(=O)N1c2ccc3c(nc(CCn4cccn4)n3CCNC3COC3)c2CC[C@@H]1C [Example 305],1 to 1000
12,COC(=O)N1c2ccc3c(nc(CCn4cccn4)n3CCNCCC#N)c2CC[C@@H]1C [Example 306],1 to 1000
13,COC(=O)N1c2ccc3c(nc(CCn4cccn4)n3CCNCCN3CCNC3=O)c2CC[C@@H]1C [Example 307],1 to 1000
14,COC(=O)N1c2ccc3c(nc(CCn4cccn4)n3CCN3CCC(C#N)CC3)c2CC[C@@H]1C [Example 308],1 to 1000
15,COC(=O)N1c2ccc3c(nc(CCn4cccn4)n3CCN3CC[C@@H](NC(C)=O)C3)c2CC[C@@H]1C [Example 309],1 to 1000
16,COC(=O)N1c2ccc3c(nc(CCn4cccn4)n3CCN3CC[C@H](NC(C)=O)C3)c2CC[C@@H]1C [Example 310],1 to 1000
17,COC(=O)N1c2ccc3c(nc(CCn4cccn4)n3CCN3CCN(C(C)C)CC3)c2CC[C@@H]1C [Example 311],1 to 1000
18,COC(=O)N1c2ccc3c(nc(CCn4cccn4)n3CCN3CCN(C4CC4)CC3)c2CC[C@@H]1C [Example 312],1 to 1000
19,COC(=O)N1c2ccc3c(nc(CCn4cccn4)n3CCN3CCN(CCO)CC3)c2CC[C@@H]1C [Example 313],1 to 1000
20,COC(=O)N1c2ccc3c(nc(CCn4ccccc4=O)n3CCNCc3ccncn3)c2CC[C@@H]1C [Example 314],1 to 1000
21,COC(=O)N1c2ccc3c(nc(CCn4ccccc4=O)n3CCNCc3cnn(C)c3)c2CC[C@@H]1C [Example 315],1 to 1000
22,COC(=O)N1c2ccc3c(nc(CCn4ccccc4=O)n3CCNCc3ccn(C)n3)c2CC[C@@H]1C [Example 316],1 to 1000
23,COC(=O)N1c2ccc3c(nc(CCn4ccccc4=O)n3CCNCc3ncnn3C)c2CC[C@@H]1C [Example 317],1 to 1000
24,COC(=O)N1c2ccc3c(nc(CCn4ccccc4=O)n3CCNC[C@H]3CCCO3)c2CC[C@@H]1C [Example 319],1 to 1000

row,SMILES,IC50 [µM]
1,COC(=O)N1c2ccc3c(nc(CCn4ccccc4=O)n3CCNCC(=O)N3CCCC3)c2CC[C@@H]1C [Example 324],1 to 1000
2,COC(=O)N1c2ccc3c(nc(CCn4ccccc4=O)n3CCN(C)C3CCOCC3)c2CC[C@@H]1C [Example 325],1 to 1000
3,COC(=O)N1c2ccc3c(nc(CCn4ccccc4=O)n3CCN(C)[C@H]3CCOC3)c2CC[C@@H]1C [Example 326],1 to 1000
4,COC(=O)N1c2ccc3c(nc(CCn4ccccc4=O)n3CCN3CC[C@H](C(N)=O)C3)c2CC[C@@H]1C [Example 327],1 to 1000
5,"COC(=O)N1c2ccc3c(nc(CCn4cccn4)n3CC(=O)N3CC[C@H](NC(C)=O)C3)c2CC[C@@H]1C [Example 335, methyl (S)-2-(2-(1H-pyrazol-1-yl)ethyl)-3-(2-((S)-3-acetamidopyrrolidin-1-yl)-2-oxoethyl)-7-methyl-3,7,8,9-tetrahydro-6H-imidazo[4,5-f]quinoline-6-carboxylate]",1 to 1000
6,COC(=O)N1c2ccc3c(nc(CCn4cccn4)n3CC(=O)NCc3ccncn3)c2CC[C@@H]1C [Example 336],1 to 1000
7,COC(=O)N1c2ccc3c(nc(CCn4cccn4)n3CC(=O)NCc3ncccn3)c2CC[C@@H]1C [Example 337],1 to 1000
8,COC(=O)N1c2ccc3c(nc(CCn4cccn4)n3CC(=O)NCCc3ccccn3)c2CC[C@@H]1C [Example 338],1 to 1000
9,COC(=O)N1c2ccc3c(nc(CCn4cccn4)n3CC(=O)NCc3ccnc(O)c3)c2CC[C@@H]1C [Example 339],1 to 1000
10,COC(=O)N1c2ccc3c(nc(CCn4cccn4)n3CC(=O)NCc3ncco3)c2CC[C@@H]1C [Example 340],1 to 1000
11,COC(=O)N1c2ccc3c(nc(CCn4cccn4)n3CC(=O)NCc3cnco3)c2CC[C@@H]1C [Example 342],1 to 1000
12,COC(=O)N1c2ccc3c(nc(CCn4cccn4)n3CC(=O)NCc3nnc(C)n3C)c2CC[C@@H]1C [Example 343],1 to 1000
13,COC(=O)N1c2ccc3c(nc(CCn4cccn4)n3CC(=O)NCc3cnn(C)c3)c2CC[C@@H]1C [Example 344],1 to 1000
14,COC(=O)N1c2ccc3c(nc(CCn4cccn4)n3CC(=O)NCc3ccn(C)n3)c2CC[C@@H]1C [Example 345],1 to 1000
15,COC(=O)N1c2ccc3c(nc(CCn4cccn4)n3CC(=O)NCc3cccnc3)c2CC[C@@H]1C [Example 346],1 to 1000
16,COC(=O)N1c2ccc3c(nc(CCn4cccn4)n3CC(=O)NC[C@H]3CCCO3)c2CC[C@@H]1C [Example 347],1 to 1000
17,COC(=O)N1c2ccc3c(nc(CCn4cccn4)n3CC(=O)N[C@H]3CC[C@H](CO)CC3)c2CC[C@@H]1C [Example 348],1 to 1000
18,COC(=O)N1c2ccc3c(nc(CCn4cccn4)n3CC(=O)N[C@H](C)CO)c2CC[C@@H]1C [Example 349],1 to 1000
19,COC(=O)N1c2ccc3c(nc(CCn4cccn4)n3CC(=O)N(C)CCO)c2CC[C@@H]1C [Example 350],1 to 1000
20,COC(=O)N1c2ccc3c(nc(CCn4cccn4)n3CC(=O)N(C)CC(=O)N(C)C)c2CC[C@@H]1C [Example 351],1 to 1000
21,COC(=O)N1c2ccc3c(nc(CCn4cccn4)n3CC(=O)N3CCC(O)CC3)c2CC[C@@H]1C [Example 352],1 to 1000
22,COC(=O)N1c2ccc3c(nc(CCn4cccn4)n3CC(=O)N3CCC(CO)CC3)c2CC[C@@H]1C [Example 353],1 to 1000
23,COC(=O)N1c2ccc3c(nc(CCn4cccn4)n3CC(=O)NCC(=O)N(C)C)c2CC[C@@H]1C [Example 354],1 to 1000
24,COC(=O)N1c2ccc3c(nc(CCn4cccn4)n3CC(=O)N(C)C3CCOCC3)c2CC[C@@H]1C [Example 356],1 to 1000

row,SMILES,IC50 [µM]
1,COC(=O)N1c2ccc3c(nc(CCn4cccn4)n3CC(=O)NCC3CCOCC3)c2CC[C@@H]1C [Example 357],1 to 1000
2,COC(=O)N1c2ccc3c(nc(CCn4cccn4)n3CC(=O)NC3CCOCC3)c2CC[C@@H]1C [Example 358],1 to 1000
3,COC(=O)N1c2ccc3c(nc(CCn4cccn4)n3CC(=O)N(C)[C@H]3CCOC3)c2CC[C@@H]1C [Example 359],1 to 1000
4,COC(=O)N1c2ccc3c(nc(CCn4cccn4)n3CC(=O)N3CC[C@H](C(N)=O)C3)c2CC[C@@H]1C [Example 360],1 to 1000
5,COC(=O)N1c2ccc3c(nc(CCn4cccn4)n3CC(=O)N(C)CC(C)(C)O)c2CC[C@@H]1C [Example 361],1 to 1000
6,COC(=O)N1c2ccc3c(nc(CCn4cccn4)n3CC(=O)NCC3(O)CCC3)c2CC[C@@H]1C [Example 362],1 to 1000
7,COC(=O)N1c2ccc3c(nc(CCn4cccn4)n3CC(=O)NCc3cc(C)no3)c2CC[C@@H]1C [Example 363],1 to 1000
8,COC(=O)N1c2ccc3c(nc(CCn4cccn4)n3CC(=O)NCC3(C)COC3)c2CC[C@@H]1C [Example 364],1 to 1000
9,COC(=O)N1c2ccc3c(nc(CCn4cccn4)n3CC(=O)NC3COC3)c2CC[C@@H]1C [Example 365],1 to 1000
10,COC(=O)N1c2ccc3c(nc(CCn4cccn4)n3CC(=O)NCC#N)c2CC[C@@H]1C [Example 366],1 to 1000
11,COC(=O)N1c2ccc3c(nc(CCn4cccn4)n3CC(=O)NCc3ccno3)c2CC[C@@H]1C [Example 367],1 to 1000
12,COC(=O)N1c2ccc3c(nc(CCn4cccn4)n3CC(=O)N3CC[C@@H](NC(C)=O)C3)c2CC[C@@H]1C [Example 370],1 to 1000
13,COC(=O)N1c2ccc3c(nc(CCn4cccn4)n3CC(=O)NCc3ncnn3C)c2CC[C@@H]1C [Example 371],1 to 1000
14,COC(=O)N1c2ccc3c(nc(CCn4ccccc4=O)n3CC(=O)NCc3ncnn3C)c2CC[C@@H]1C [Example 372],1 to 1000
15,COC(=O)N1c2ccc3c(nc(CCn4ccccc4=O)n3CC(=O)NCc3ccncn3)c2CC[C@@H]1C [Example 373],1 to 1000
16,COC(=O)N1c2ccc3c(nc(CCn4ccccc4=O)n3CC(=O)NCCc3ccccn3)c2CC[C@@H]1C [Example 374],1 to 1000
17,COC(=O)N1c2ccc3c(nc(CCn4ccccc4=O)n3CC(=O)NCc3cccnc3)c2CC[C@@H]1C [Example 375],1 to 1000
18,COC(=O)N1c2ccc3c(nc(CCn4ccccc4=O)n3CC(=O)NC[C@H]3CCCO3)c2CC[C@@H]1C [Example 376],1 to 1000
19,COC(=O)N1c2ccc3c(nc(CCn4ccccc4=O)n3CC(=O)N[C@H]3CC[C@H](CO)CC3)c2CC[C@@H]1C [Example 377],1 to 1000
20,COC(=O)N1c2ccc3c(nc(CCn4ccccc4=O)n3CC(=O)N[C@H](C)CO)c2CC[C@@H]1C [Example 378],1 to 1000
21,COC(=O)N1c2ccc3c(nc(CCn4ccccc4=O)n3CC(=O)N(C)CCO)c2CC[C@@H]1C [Example 379],1 to 1000
22,COC(=O)N1c2ccc3c(nc(CCn4ccccc4=O)n3CC(=O)N(C)CC(=O)N(C)C)c2CC[C@@H]1C [Example 380],1 to 1000
23,COC(=O)N1c2ccc3c(nc(CCn4ccccc4=O)n3CC(=O)N3CCC(O)CC3)c2CC[C@@H]1C [Example 381],1 to 1000
